Measured values reported in ChEMBL document CHEMBL6114940, “Exploring the pharmaceutical potential of ammonium organotrifluoroborate functional group: Comprehensive chemical, metabolic, and plasma stability evaluation” (Eur J Med Chem, 2024).
The source made the active and inactive calls. The rule behind the calls is not given here.

Tests used:
[1] = Stability of compound in 0.5 M NaOH assessed as half life incubated for 72 hrs by LC-MS analysis; type: physicochemical
[2] = Stability of compound in 20 mM CH3COONH4 buffer at pH 5.8 assessed as N-(boronomethyl)-N-butyl-N-(2-(2-(2-(((2R,3R,4S,5S,6R)-3,4,5-trihydroxy-6-(hydroxymethyl)tetrahydro-2H-pyran-2-yl)oxy)ethoxy)ethoxy)ethyl)butan-1-aminium formation incubated for 72 hrs by LC-MS analysis; type: physicochemical; details: pH 5.8, 72 h
[3] = Stability of compound in phosphate/D2O buffer at pH 7.4 assessed as drug hydrolysis by measuring N-(boronomethyl)-N-butyl-N-(2-(2-(2-(((2R,3R,4S,5S,6R)-3,4,5-trihydroxy-6-(hydroxymethyl)tetrahydro-2H-pyran-2-yl)oxy)ethoxy)ethoxy)ethyl)butan-1-aminium formation incubated for 72 hrs by LC-MS analysis; type: physicochemical; details: pH 7.4, 72 h
[4] = Stability of compound in 20 mM CH3COONH4 buffer at pH 5.8 assessed as solvolysis constant (K) incubated for 72 hrs by LC-MS analysis; type: physicochemical; parameters: unit not given beside the values; details: pH 5.8, 72 h
[5] = Stability of compound in 0.05 M HCL assessed as solvolysis constant (K) incubated for 72 hrs by LC-MS analysis; type: physicochemical; parameters: unit not given beside the values; details: buffer
[6] = Stability of compound in 0.5 M NaOH assessed as N-butyl-N-methyl-N-(2-(2-(2-(((2R,3R,4S,5S,6R)-3,4,5-trihydroxy-6-(hydroxymethyl)tetrahydro-2H-pyran-2-yl)oxy)ethoxy)ethoxy)ethyl)butan-1-aminium formation incubated for 72 hrs by LC-MS analysis; type: physicochemical
[7] = Stability of compound in 0.9 % saline solution assessed as half life incubated for 72 hrs by LC-MS analysis; type: physicochemical
[8] = Stability of compound in 0.05 M HCL assessed as half life incubated for 72 hrs by LC-MS analysis; type: physicochemical
[9] = Stability of compound in 0.9 % saline solution assessed as solvolysis constant (K) incubated for 72 hrs by LC-MS analysis; type: physicochemical; details: buffer
[10] = Stability of compound in 0.5 M NaOH assessed as N-(boronomethyl)-N-butyl-N-(2-(2-(2-(((2R,3R,4S,5S,6R)-3,4,5-trihydroxy-6-(hydroxymethyl)tetrahydro-2H-pyran-2-yl)oxy)ethoxy)ethoxy)ethyl)butan-1-aminium formation incubated for 72 hrs by LC-MS analysis; type: physicochemical
[11] = Stability of compound in 50 mM HCL assessed as N-(boronomethyl)-N-butyl-N-(2-(2-(2-(((2R,3R,4S,5S,6R)-3,4,5-trihydroxy-6-(hydroxymethyl)tetrahydro-2H-pyran-2-yl)oxy)ethoxy)ethoxy)ethyl)butan-1-aminium formation incubated for 72 hrs by LC-MS analysis; type: physicochemical; details: buffer
[12] = Stability of compound in 20 mM CH3COONH4 buffer at pH 5.8 assessed as half life incubated for 72 hrs by LC-MS analysis; type: physicochemical; details: 20 mM ammonium acetate (CH3COONH4) buffer
[13] = Stability in mouse plasma measured after 1 hr by LC-HRMS analysis; type: ADME, cell-free; details: read-out: Stability
[14] = Metabolic stability in mouse liver microsomes assessed as drug hydrolysis by measuring N-(boronomethyl)-N-butyl-N-(2-(2-(2-(((2R,3R,4S,5S,6R)-3,4,5-trihydroxy-6-(hydroxymethyl)tetrahydro-2H-pyran-2-yl)oxy)ethoxy)ethoxy)ethyl)butan-1-aminium formation incubated for 1 hr by LC-MS/MS analysis; type: ADME, Microsome
[15] = Stability of compound in 0.3 % H2O2 assessed as (2R,3R,4S,5S,6R)-2-(2-(2-(2-(dibutylamino)ethoxy)ethoxy)ethoxy)-6-(hydroxymethyl)tetrahydro-2H-pyran-3,4,5-triol formation incubated for 1 hrs by LC-MS analysis; type: physicochemical
[16] = Stability of compound in Tris-HCL buffer at pH 7.4 assessed as N-(boronomethyl)-N-butyl-N-(2-(2-(2-(((2R,3R,4S,5S,6R)-3,4,5-trihydroxy-6-(hydroxymethyl)tetrahydro-2H-pyran-2-yl)oxy)ethoxy)ethoxy)ethyl)butan-1-aminium formation incubated for 72 hrs by LC-MS analysis; type: physicochemical; details: pH 7.4, 72 h
[17] = Stability of compound in 50 mM Tris-HCL buffer at pH 7.4 assessed as solvolysis constant (K) incubated for 72 hrs by LC-MS analysis; type: physicochemical; details: pH 7.4, 72 h
[18] = Stability of compound in 0.5 M NaOH assessed as solvolysis constant (K) incubated for 72 hrs by LC-MS analysis; type: physicochemical; parameters: unit not given beside the values
[19] = Stability of compound in 0.9 % saline solution assessed as N-(boronomethyl)-N-butyl-N-(2-(2-(2-(((2R,3R,4S,5S,6R)-3,4,5-trihydroxy-6-(hydroxymethyl)tetrahydro-2H-pyran-2-yl)oxy)ethoxy)ethoxy)ethyl)butan-1-aminium formation incubated for 72 hrs by LC-MS analysis; type: physicochemical; details: buffer
[20] = Stability of compound in 50 mM Tris-HCL buffer at pH 7.4 assessed as half life incubated for 72 hrs by LC-MS analysis; type: physicochemical
[21] = Stability of compound in 0.5 M NaOH assessed as N,N,N-trimethyl-1-(1-((3R,4R,5S,6R)-2,4,5-trihydroxy-6-(hydroxymethyl)tetrahydro-2H-pyran-3-yl)-1H-1,2,3-triazol-4-yl)methanaminium formation incubated for 72 hrs by LC-MS analysis; type: physicochemical
[22] = Stability of compound in 0.05 M HCL assessed as 1-borono-N,N-dimethyl-N-((1-((3R,4R,5S,6R)-2,4,5-trihydroxy-6-(hydroxymethyl)tetrahydro-2H-pyran-3-yl)-1H-1,2,3-triazol-4-yl)methyl)methanaminium formation incubated for 72 hrs by LC-MS analysis; type: physicochemical; details: buffer
[23] = Stability of compound in 20 mM CH3COONH4 buffer at pH 5.8 assessed as 1-borono-N,N-dimethyl-N-((1-((3R,4R,5S,6R)-2,4,5-trihydroxy-6-(hydroxymethyl)tetrahydro-2H-pyran-3-yl)-1H-1,2,3-triazol-4-yl)methyl)methanaminium formation incubated for 72 hrs by LC-MS analysis; type: physicochemical; details: pH 5.8, 72 h
Fibroblast [24] = assay: Cytotoxicity against human fibroblast assessed as reduction in cell viability upto 100 uM incubated for 24 to 72 hrs by MTT assay; type: toxicity, cell-based; details: time 24-72 hrs
U-87 MG [25] = assay: Cytotoxicity against human U-87 MG assessed as reduction in cell viability upto 100 uM incubated for 24 to 72 hrs by MTT assay; type: functional, cell-based; details: U-87MG ATCC, time 24-72 hrs
U-87 MG [26] = assay: Cytotoxicity against human U-87 MG assessed as reduction in cell viability at 300 uM incubated for 24 to 72 hrs by MTT assay relative to control; type: functional, U-87MG ATCC; details: time 24-72 hrs
A-375 [27] = assay: Cytotoxicity against human A-375 assessed as reduction in cell viability upto 100 uM incubated for 24 to 72 hrs by MTT assay; type: functional, cell-based; details: time 24-72 hrs
[28] = Stability of compound in 50 mM Tris-HCL buffer at pH 7.4 assessed as 1-borono-N,N-dimethyl-N-((1-((3R,4R,5S,6R)-2,4,5-trihydroxy-6-(hydroxymethyl)tetrahydro-2H-pyran-3-yl)-1H-1,2,3-triazol-4-yl)methyl)methanaminium formation incubated for 72 hrs by LC-MS analysis; type: physicochemical; details: pH 7.4, 72 h
[29] = Stability of compound in 0.9 % saline solution assessed as 1-borono-N,N-dimethyl-N-((1-((3R,4R,5S,6R)-2,4,5-trihydroxy-6-(hydroxymethyl)tetrahydro-2H-pyran-3-yl)-1H-1,2,3-triazol-4-yl)methyl)methanaminium formation incubated for 72 hrs by LC-MS analysis; type: physicochemical; details: buffer
A-375 [30] = assay: Cytotoxicity against human A-375 assessed as reduction in cell viability at 0.1 to 300 uM incubated for 72 hrs by MTT assay; type: functional, cell-based; details: dose 0.1-300 µM
Fibroblast [31] = assay: Cytotoxicity against human fibroblast assessed as reduction in cell viability at 0.1 to 300 uM incubated for 24 to 48 hrs by MTT assay; type: toxicity, cell-based; details: dose lower 0.1 µM, time lower 24 hrs, dose upper 300 µM, time upper 48 hrs
Fibroblast [32] = assay: Cytotoxicity against human fibroblast assessed as reduction in cell viability at 300 uM incubated for 24 to 72 hrs by MTT assay relative to control; type: toxicity, cell-based; details: time 24-72 hrs
A-375 [33] = assay: Cytotoxicity against human A-375 assessed as reduction in cell viability at 300 uM incubated for 24 to 72 hrs by MTT assay relative to control; type: functional; details: time 24-72 hrs
[34] = Stability of compound in 0.5 M NaOH assessed as 1-borono-N,N-dimethyl-N-((1-((3R,4R,5S,6R)-2,4,5-trihydroxy-6-(hydroxymethyl)tetrahydro-2H-pyran-3-yl)-1H-1,2,3-triazol-4-yl)methyl)methanaminium formation incubated for 72 hrs by LC-MS analysis; type: physicochemical
U-87 MG [35] = assay: Cytotoxicity against human U-87 MG assessed as reduction in cell viability at 0.1 to 300 uM incubated for 24 to 48 hrs by MTT assay; type: functional, cell-based; details: U-87MG ATCC, dose 0.1-300 µM, time 24-48 hrs
[36] = Stability of compound at pH 7.5 in phosphate buffer at 2 mg/ml; type: physicochemical
A-375 [37] = assay: Cytotoxicity against human A-375 assessed as reduction in cell viability at 0.1 to 300 uM incubated for 24 to 48 hrs by MTT assay; type: functional, cell-based; details: dose 0.1-300 µM, time 24-48 hrs
[38] = Metabolic stability in mouse liver microsomes assessed as drug hydrolysis by measuring 1-borono-N,N-dimethyl-N-((1-((3R,4R,5S,6R)-2,4,5-trihydroxy-6-(hydroxymethyl)tetrahydro-2H-pyran-3-yl)-1H-1,2,3-triazol-4-yl)methyl)methanaminium formation incubated for 1 hrs by LC-MS/MS analysis; type: ADME, Microsome
U-87 MG [39] = assay: Cytotoxicity against human U-87 MG assessed as reduction in cell viability at 0.1 to 300 uM incubated for 72 hrs by MTT assay; type: functional, cell-based; details: U-87MG ATCC, dose 0.1-300 µM
Fibroblast [40] = assay: Cytotoxicity against human fibroblast assessed as reduction in cell viability at 0.1 to 300 uM incubated for 72 hrs by MTT assay; type: toxicity, cell-based; details: dose 0.1-300 µM
[41] = Stability of compound in 0.3 % H2O2 assessed as (3R,4R,5S,6R)-3-(4-((dimethylamino)methyl)-1H-1,2,3-triazol-1-yl)-6-(hydroxymethyl)tetrahydro-2H-pyran-2,4,5-triol formation incubated for 1 hrs by LC-MS analysis; type: physicochemical

SMILES: CCCC[N+](CCCC)(CCOCCOCCO[C@@H]1O[C@H](CO)[C@@H](O)[C@H](O)[C@H]1O)C[B-](F)(F)F
- half-life [1]: 8.47 h
- Stability [2]: Stable
- Stability [3]: Stable
- K [4]: 0.03
- K [5]: 2.617
- Stability [6]: Stable
- half-life [7]: 6.82 h
- half-life [8]: 0.265 h
- K [9]: 0.102
- Stability [10]: Stable
- Stability [11]: Stable
- half-life [12]: 22.8 h
- remaining at 1 h [13]: 8.89%
- Drug metabolism [14]: metabolite_detected
- Stability [15]: Stable
- Stability [16]: Stable
- K [17]: 0.086
- K [18]: 0.082
- Stability [19]: Stable
- half-life [20]: 8.07 h

SMILES: C[N+](C)(Cc1cn([C@@H]2[C@@H](O)[C@H](O)[C@@H](CO)O[C@@H]2O)nn1)C[B-](F)(F)F
- Stability [21]: Stable
- half-life [1]: ≥ 20.9 h
- Stability [22]: Stable
- Stability [23]: Stable
- Activity (Fibroblast [24]): Non-toxic
- K [4]: 8.731
- Activity (U-87 MG [25]): Active
- K [5]: 0.766
- half-life [7]: 18.3 h
- half-life [8]: 0.904 h
- Activity (U-87 MG [26]): -15%
- Activity (A-375 [27]): Active
- Stability [28]: Stable
- Stability [29]: Stable
- K [9]: 0.038
- Activity (A-375 [30]): Active
- Activity (Fibroblast [31]): Non-toxic
- half-life [12]: ~0.0794 h
- remaining at 1 h [13]: 4.15%
- Activity (Fibroblast [32]): -15%
- Activity (A-375 [33]): -15%
- Stability [34]: Stable
- K [17]: 0.017
- Activity (U-87 MG [35]): Active
- Stability [36]: Stable
- K [18]: 0.016
- Activity (A-375 [37]): Active
- half-life [20]: 25 h
- Drug metabolism [38]: metabolite_detected
- Activity (U-87 MG [39]): Active
- Activity (Fibroblast [40]): Non-toxic
- Stability [41]: Stable
